pIC50: −log10 of the molar value.
Test system: HeLa
Test: Cytotoxicity against human HeLa cells
Assay type: functional, cell-based

C=C1CCC[C@H]2[C@]3(C)OC4=C(C[C@]3(C)CC[C@]12C)C(=O)C(OC)=CC4=O [NEODACTYLOQUINONE]
pIC50: 4.07

Source: ChEMBL document CHEMBL1158885, “A new sesquiterpenoid quinone and other related compounds from the Okinawan marine sponge Dactylospongia elegans” (J Nat Prod, 2003)
